Assay results: US11491192B2, “Treatment and prevention of pathogenic bacterial overgrowth using butyrate-producing bacteria” (THE CLEVELAND CLINIC FOUNDATION, priority 2018, dated 2022)

What was measured:
F. prausnitzii = assay: Brucella broth dilution MIC of common antibiotics; type: cell-based, Faecalibacterium prausnitzii; details: unit assumed
Protocol: This strain was chosen because it was isolated from human feces, and based on its ability to hydrolyze PS, yield butyrate, and utilize lactate. Belenguer et al., Applied Environmental Microbiology, 72:3593-3599 (2006) Bacteria was grown in conditions and medium as recommended by ATCC, briefly at 37° C. in anaerobic gas biological mix of 80% nitrogen, 10% carbon dioxide, 10% hydrogen, ATCC pre-reduced chopped meat broth (ATCC 1703). Overnight culture of FP was lyophilized on […] system and reconstituted in pre-reduced sterile phosphate buffered saline (PBS) just prior to treatment. Brucella broth dilution MIC of common antibiotics for FP and CD strains were determined using standard methods for susceptibility testing of anaerobic bacteria (Table 1).

C. difficile = assay: Brucella broth dilution MIC of common antibiotics; type: cell-based, Clostridium difficile; details: unit assumed
[1] = test system: sodium-coupled butyrate transporter, butyrate receptor, tight junction proteins and NHE3; details: supplementation during broad spectrum antibiotic treatment in mice; Cresci et al. 2013; cited from earlier work
[2] = Brucella broth dilution, FP strain used in this study (ATCC 27766)
[3] = Brucella broth dilution, CD strain used in this study (VA17)

Compound	F. prausnitzii MIC (F. prausnitzii; [2])	C. difficile MIC (C. difficile; [3])	also measured
Piperacillin/Tazaba	8 µg/mL	15.6 µg/mL	–
CCCC(=O)OCC(COC(=O)CCC)OC(=O)CCC [tributyrin]	–	–	intestinal losses of sodium-coupled butyrate transporter, butyrate receptor, tight junction proteins and NHE3 [1]: protects against intestinal losses
CCC[C@@H]1C[C@@H](C(=O)N[C@@H]([C@H]2O[C@H](SC)[C@H](O)[C@@H](O)[C@H]2O)[C@H](C)Cl)N(C)C1 [Clindamycin]	–	500 µg/mL	–
CN[C@H](CC(C)C)C(=O)N[C@H]1C(=O)N[C@@H](CC(N)=O)C(=O)N[C@H]2C(=O)N[C@H]3C(=O)N[C@H](C(=O)N[C@H](C(=O)O)c4cc(O)cc(O)c4-c4cc3ccc4O)[C@H](O)c3ccc(c(Cl)c3)Oc3cc2cc(c3O[C@@H]2O[C@H](CO)[C@@H](O)[C@H](O)[C@H]2O[C@H]2C[C@](C)(N)[C@H](O)[C@H](C)O2)Oc2ccc(cc2Cl)[C@H]1O [Vancomycin]	–	–	F. prausnitzii MIC (F. prausnitzii): < 2 µg/mL; C. difficile MIC (C. difficile): < 2 µg/mL
Cc1ncc([N+](=O)[O-])n1CCO [Metronidazole]	< 2 µg/mL	< 2 µg/mL	–
CO[C@@]1(NC(=O)Cc2cccs2)C(=O)N2C(C(=O)O)=C(COC(N)=O)CS[C@@H]21 [Cefoxitin]	< 2 µg/mL	250 µg/mL	–
